Test results: PMC2678132, “Solution structure of the parvulin-type PPIase domain of Staphylococcus aureus PrsA – Implications for the catalytic mechanism of parvulins” (BMC Structural Biology, 2009)

Target: T1, S. aureus PrsA-PPIase (Staphylococcus aureus, UniProt P60747)
T1 construct: parvulin-type PPIase domain, residues 140-245, GST fusion (pGEX-2T) from E. coli BL21, GST cleaved off by protease; 15N- or 13C/15N-labelled for NMR
Experiment: NMR titration
Type: binding
Settings: S1-H1 loop; data not shown

T1 sequence (P60747 140-245): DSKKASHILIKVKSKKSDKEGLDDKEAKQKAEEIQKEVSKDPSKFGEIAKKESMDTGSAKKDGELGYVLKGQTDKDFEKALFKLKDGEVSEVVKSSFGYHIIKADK

O=S(=O)(O)O [sodium sulphate]
NMR titration: Binding of multivalent anions to the S1-H1 loop of PrsA-PPIase was also confirmed by NMR titrations
